From patent publication US20250008957A1, “METHOD OF IMPROVING PLANT GROWTH” (UPL LIMITED, priority 2021, published 2025)

Columns and labels:
[1] = test system: corn seeds; assay: Seed treatment of corn seeds with flonicamid combinations: root length and fresh weight of seedlings; format: in vivo, Zea mays; details: 5 ml/kg of seed; for Fresh weight: seedlings
Experimental: (§1) 7 kg of untreated clean seeds of Zea mays were collected. The seeds were 5 mixed thoroughly in a tray to make them homogeneous. 21 sub-samples of 300 g each were prepared. A polythene bag was used for the treatment of each sample with flonicamid combinations. The formulation was used at a dosage of 5 ml/kg of seed. Before treating, the seeds were checked for their initial moisture content and minimum germination percentage. After the treatment, the treated seeds were dried in a hot air chamber having temperature of 40-43° C. to maintain their original moisture content. Table 5 discloses the effect on root length and Table 6 discloses fresh weight of the seedlings.

[2] = test system: corn seeds; assay: Germination index of treated corn seeds by petri dish method; format: in vivo, Zea mays; details: 5 ml/kg of seed
Experimental: as §1, with “were” for “were 5”, “Table 10” for “Table 5”, “the germination index” for “the effect on root length and Table 6 discloses fresh weight”, “of corn seeds by petri dish method.” for “of the seedlings.”

Row | Structure (SMILES) | Root length [1] [cm] | Germination index ([2]; 4th day) | Germination index ([2]; 7th day) | Fresh weight [1] [g]
1 | CC1=C(C(=O)Nc2ccccc2)SCCO1 [Carboxin 200 g/L, carboxin] | 14.25 |  |  | 
2 | CNC(=O)c1cc(Cl)cc(C)c1NC(=O)c1cc(Br)nn1-c1ncccc1Cl [Chlorantraniliprole 120 g/L, Chlorantraniliprole] |  | 7 | 1 | 
3 | CNC(=O)c1cc(C#N)cc(C)c1NC(=O)c1cc(Br)nn1-c1ncccc1Cl [Cyantraniliprole 120 g/L, Cyantraniliprole] | 14.25 | 7 | 3 | 20.92
4 | N#CCNC(=O)c1cnccc1C(F)(F)F [Flonicamid 240 g/L, N-cyanomethyl-4-trifluoromethylnicotinamide] |  | 7 | 3 | 
5 | N#CCNC(=O)c1cnccc1C(F)(F)F [Flonicamid 360 g/L, N-cyanomethyl-4-trifluoromethylnicotinamide] | 12.5 | 7 | 1 | 22.73
6 | N#Cc1c[nH]cc1-c1cccc2c1OC(F)(F)O2 [Fludioxonil 25 g/L, fludioxonil] | 14 | 8 | 1 | 
7 | CC(C)C1CCC(Cc2ccc(Cl)cc2)C1(O)Cn1cncn1 (centres unmarked) [Ipconazole 25 g/L, ipconazole] |  | 7 | 3 | 
8 | COCC(=O)N(c1c(C)cccc1C)C(C)C(=O)OC (centres unmarked) [Metalayxl 50 g/L, metalaxyl] | 15 | 7 | 3 | 25.72
9 | CN1COCN(Cc2cnc(Cl)s2)/C1=N\[N+](=O)[O-] [Thiamethoxam] | 11.75 | 7 | 2 | 19.31
